{"source": "ChEMBL document CHEMBL1138848", "about": "“Tetrahydrobiopterin binding to aromatic amino acid hydroxylases. Ligand recognition and specificity” (J Med Chem, 2004)", "key": {"[1]": {"target": "T1, Phenylalanine-4-hydroxylase (Homo sapiens, UniProt P00439)", "T1 sequence (P00439 whole entry)": "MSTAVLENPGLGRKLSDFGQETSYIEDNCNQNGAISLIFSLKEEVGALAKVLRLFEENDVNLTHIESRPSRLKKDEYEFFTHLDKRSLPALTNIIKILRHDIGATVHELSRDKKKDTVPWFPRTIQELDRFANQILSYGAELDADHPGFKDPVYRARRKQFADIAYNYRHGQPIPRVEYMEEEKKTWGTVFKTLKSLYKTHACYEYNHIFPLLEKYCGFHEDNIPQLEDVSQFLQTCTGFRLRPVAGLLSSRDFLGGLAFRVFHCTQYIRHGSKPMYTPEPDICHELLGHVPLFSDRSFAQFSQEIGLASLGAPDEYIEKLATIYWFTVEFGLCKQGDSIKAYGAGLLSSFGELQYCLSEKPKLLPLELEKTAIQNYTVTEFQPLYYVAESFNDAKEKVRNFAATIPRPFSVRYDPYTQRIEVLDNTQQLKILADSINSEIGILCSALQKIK", "experiment": "Inhibitory concentration against human phenylalanine hydroxylase"}, "[2]": {"target": "T1, Phenylalanine-4-hydroxylase", "experiment": "Binding affinity for human phenylalanine hydroxylase"}}, "data": [{"smiles": "CC(O)C(O)C1CNc2c(nc(N)[nH]c2=O)N1", "note": "(configuration not stated)", "values": [{"measurement": "IC50", "setting": "[1]", "result": 1, "unit": "µM"}, {"measurement": "Ki", "setting": "[2]", "result": 7, "unit": "µM"}]}]}
